Experimental data published in publication PMC4335544 (Critical Care, 2015).

Legend:
[1] = 37°C, 4.5 L/minute
Protocol: Whole ECMO circuits (Maquet®, Orleans, France) comprising a Quadrox® membrane oxygenator, a centrifugal pump, a heat exchanger and PVC tubing were used for ex vivo tests. All components of the circuit were treated with heparin (Bioline coating®, Maquet). Drug-free human whole blood (800 mL) was used to prime the circuit. In order to replicate the in vivo operating conditions, the temperature of the circulating blood was set at 37°C and circuit flow rate at 4.5 L/minute.
During ex vivo ECMO runs, serial post-membrane blood samples were obtained at 30 minutes, 1 hour, 2 hours, 3 hours, 4 hours, 5 hours, 24 hours and 48 hours after drug introduction into the circuit. Until analysis, samples were kept at 4°C and plasma separated and frozen at −20°C. To determine spontaneous drug degradation, blood containing identical concentrations of the drugs studied was kept in polypropylene tubes under agitation at 25°C for the same time before measurements.
Propofol and midazolam concentrations were measured using high performance liquid chromatography with an ultra-violet detector (Waters, Milford, MA, USA).
Changes of mean drug concentrations over time were compared between control and experimental conditions by modeling using a linear mixed effect model. […] Model choice was guided by the lowest Akaike criteria value. The mixed effect model was then fitted with R software version 3.0.2 and the ‘nlme’ library [10].

[2] = octanol/water; ref 13-16 (Drug Bank); cited from earlier work
[3] = Spontaneous drug degradation in control polypropylene tubes (whole blood); format: in vitro ADME; conditions: human whole blood, polypropylene tubes under agitation at 25°C, up to 48 hours; HPLC-UV or immuno-enzymatic method
[4] = Method: To further explore the role of temperature, oxygen exposure and PVC surfaces on propofol loss in the ECMO circuit, the following experiments were conducted. A polypropylene tube containing human whole blood was spiked with the propofol stock solution to obtain a concentration of […]. The effect of the temperature, oxygen exposure and contact with PVC surfaces were assessed by incubating the tube at 37°C, applying oxygen (1 L/minute) for 10 seconds to the preparation and by distributing the preparation into 5-cm PVC tubes, respectively. Polypropylene tubes containing blood and propofol at the same concentration were stored at room temperature and were used as controls. Propofol concentrations were measured at 0 minutes, 5 minutes, 10 minutes, 15 minutes, 20 minutes, 25 minutes, 30 minutes and 45 minutes from each preparation. These experiments were conducted in triplicate.
[5] = cited from earlier work
Text: Vancomycin, which is the drug of choice for treating beta-lactam resistant Gram-positive bacteria, is frequently prescribed to ECMO patients.

Row | Compound | baseline concentration detected in ECMO circuit ([1]; at 30 minutes, human whole blood, HPLC-UV, mean of n = 3 circuits) | baseline concentration remaining in ECMO circuit ([1]; at 24 hours, human whole blood, midazolam HPLC-UV, cyclosporine immuno-enzymatic method, mean of n = 3 circuits) | Partition coefficient (log P) [2] | concentration over time in control polypropylene tubes [3] | baseline concentration lost in ECMO circuit ([1]; 30 minutes after introduction, Maquet circuit, Quadrox oxygenator, PVC tubing, heparin coating, 800 mL human whole blood, propofol 2 μg/mL, HPLC-UV, mean of n = 3 circuits) | initial concentration remaining in ECMO circuit ([1]; after 5 hours, human whole blood, HPLC-UV, mean of n = 3 circuits) | fraction remaining in ECMO circuit ([1]; beyond 24 hours, human whole blood, HPLC-UV, n = 3 circuits) | loss of propofol on contact with PVC tubing ([4]; after 45 minutes, human whole blood distributed into 5-cm PVC tubes, propofol 2 μg/L as printed, mean of n = 3) | loss of propofol on oxygen exposure ([4]; after 45 minutes, human whole blood in polypropylene tube, oxygen 1 L/minute for 10 seconds, propofol 2 μg/L as printed, mean of n = 3) | effect of heating to 37°C on propofol concentration ([4]; polypropylene tube with human whole blood at 37°C, up to 45 minutes, n = 3) | concentration in ECMO circuit, result in words ([1]; during the 48 hours of the protocol, human whole blood, immuno-enzymatic method, n = 3 circuits) | decrease in concentration, used circuit ([5]; circuit which had been running for five days, ref 3 (Dagan et al.)) | decrease in concentration, new circuit ([5]; drug introduced in a new circuit, ref 3 (Dagan et al.)) | levels in ECMO circuit, result in words ([5]; ex vivo models, 24 hours, ref 20 (Mehta et al.), ref 19 (Shekar et al.)) | decrease in concentration, neonatal and pediatric circuits ([5]; neonatal and pediatric circuits, ref 6 (Wildschut et al.))
1 | Cc1ncc2n1-c1ccc(Cl)cc1C(c1ccccc1F)=NC2 [Midazolam] | 54% | 11% | 3.9 | remained stable |  |  |  |  |  |  |  |  |  |  | 
2 | CC(C)c1cccc(C(C)C)c1O [Propofol] |  |  | 4.0 | remained stable | 70% | 11% | negligible | 85% | 70% | no effect |  |  |  |  | 
3 | Vancomycin |  |  |  | remained stable |  |  |  |  |  |  | remained stable | 11% | 36% | remained unchanged | up to 46%
